According to ChEMBL document CHEMBL1201862, “PubChem BioAssay data set” (2004):
Values belong to the compound of their own block, whether it stands above or below them. Activity calls are given as the source filed them.

What was measured:
[1] = molecular target: NACHT, LRR and PYD domains-containing protein 3 (Homo sapiens, UniProt Q96P20); assay: NALP3 inhibitors in yeast, dose response, luminescent (AID 488799); type: functional
[2] = molecular target: E3 ubiquitin-protein ligase Mdm2/Protein Mdm4 (Homo sapiens, UniProt O15151+Q00987); assay: Mdm2-MdmX interaction inhibitors, dose response, luminescence detection (AID 504593); type: functional
E3 ubiquitin-protein ligase Mdm2/Protein Mdm4, sequence (Q00987 whole entry): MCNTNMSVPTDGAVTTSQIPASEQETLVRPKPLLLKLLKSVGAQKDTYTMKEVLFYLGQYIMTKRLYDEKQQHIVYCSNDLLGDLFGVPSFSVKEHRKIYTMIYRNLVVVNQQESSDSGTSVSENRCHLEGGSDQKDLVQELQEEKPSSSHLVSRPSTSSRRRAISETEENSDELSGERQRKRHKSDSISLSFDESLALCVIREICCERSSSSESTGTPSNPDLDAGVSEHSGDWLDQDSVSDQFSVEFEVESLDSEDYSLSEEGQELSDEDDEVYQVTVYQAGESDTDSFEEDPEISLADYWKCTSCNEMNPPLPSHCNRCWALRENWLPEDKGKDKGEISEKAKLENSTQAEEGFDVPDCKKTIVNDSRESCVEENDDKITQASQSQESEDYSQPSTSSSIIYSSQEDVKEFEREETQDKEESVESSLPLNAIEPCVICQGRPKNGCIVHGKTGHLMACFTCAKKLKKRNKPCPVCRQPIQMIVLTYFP
E3 ubiquitin-protein ligase Mdm2/Protein Mdm4, sequence (O15151 whole entry): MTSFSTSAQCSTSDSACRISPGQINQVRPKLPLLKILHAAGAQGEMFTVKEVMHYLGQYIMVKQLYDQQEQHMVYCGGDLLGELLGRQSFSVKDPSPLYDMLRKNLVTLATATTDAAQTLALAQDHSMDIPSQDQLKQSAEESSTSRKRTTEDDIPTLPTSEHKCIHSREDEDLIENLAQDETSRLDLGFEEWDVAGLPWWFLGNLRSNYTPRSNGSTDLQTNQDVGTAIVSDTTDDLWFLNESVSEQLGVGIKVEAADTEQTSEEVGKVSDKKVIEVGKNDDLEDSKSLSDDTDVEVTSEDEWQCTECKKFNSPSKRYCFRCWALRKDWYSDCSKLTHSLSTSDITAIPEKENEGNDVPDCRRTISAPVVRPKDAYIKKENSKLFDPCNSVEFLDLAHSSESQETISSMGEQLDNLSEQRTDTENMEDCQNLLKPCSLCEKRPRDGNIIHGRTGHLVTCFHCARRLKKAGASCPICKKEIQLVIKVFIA

[3] = HEp-2 cell cytotoxicity, dose response, cytotoxicity control for RSV inhibitor project, HTS (AID 2410); type: functional; details: human respiratory syncytial virus
J774.A1 = assay: Confirmation of image-based Screening Assay for Inhibitors of Phagocytosis. [Related pubchem assays (depositor defined):AID1029, AID1643]; type: functional, cell-based; details: Mus musculus
Trypanosoma cruzi = assay: growth inhibition of intracellular Trypanosoma cruzi, dose response, cell-based, plate reader, dry powder, set 3 (AID 493197); type: functional
[4] = cytotoxicity in NIH/3T3 mouse fibroblasts, dose response, cytotoxicity control, cell-based, mouse embryonic fibroblasts, dry powder, set 2 (AID 493247); type: functional; details: Fibroblast
[5] = molecular target: T1, Eukaryotic translation initiation factor 4H (Homo sapiens, UniProt Q15056); assay: eIF4H inhibition in translation initiation, SAR follow-up (AID 435011); type: functional
[6] = molecular target: T2, Polyadenylate-binding protein 1 (Homo sapiens, UniProt P11940); assay: PABP poly(A) RNA binding inhibitors, primary screen, biochemical, fluorescence polarization, uHTS (AID 2014)
T2 sequence (P11940 whole entry): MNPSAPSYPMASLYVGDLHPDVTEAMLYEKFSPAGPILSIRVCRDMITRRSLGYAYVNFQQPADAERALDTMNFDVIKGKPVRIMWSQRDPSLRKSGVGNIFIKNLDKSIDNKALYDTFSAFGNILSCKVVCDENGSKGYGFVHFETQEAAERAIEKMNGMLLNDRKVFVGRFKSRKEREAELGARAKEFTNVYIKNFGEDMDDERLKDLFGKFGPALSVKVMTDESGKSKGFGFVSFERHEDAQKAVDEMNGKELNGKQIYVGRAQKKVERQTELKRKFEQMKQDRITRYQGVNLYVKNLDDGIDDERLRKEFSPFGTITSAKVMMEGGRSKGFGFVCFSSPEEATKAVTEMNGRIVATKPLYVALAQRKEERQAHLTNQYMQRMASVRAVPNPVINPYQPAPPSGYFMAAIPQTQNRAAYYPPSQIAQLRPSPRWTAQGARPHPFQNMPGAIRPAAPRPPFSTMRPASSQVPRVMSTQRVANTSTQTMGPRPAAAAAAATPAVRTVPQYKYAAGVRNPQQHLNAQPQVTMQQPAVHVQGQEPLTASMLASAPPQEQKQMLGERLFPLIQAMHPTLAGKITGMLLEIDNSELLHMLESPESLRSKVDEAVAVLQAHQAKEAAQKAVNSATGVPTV

[7] = molecular target: T2, Polyadenylate-binding protein 1; assay: PABP inhibition in translation initiation, SAR follow-up (AID 435018); type: functional
[8] = molecular target: T1, Eukaryotic translation initiation factor 4H; assay: human eIF4H binding inhibitors, primary screen, translation initiation inhibitor project, biochemical, uHTS, fluorescence polarization (AID 2012)
[9] = molecular target: Sphingosine 1-phosphate receptor 4 (Homo sapiens, UniProt O95977); assay: S1P4 receptor agonists, human, late-stage follow-up, cell-based, fluorescence, synthesized compounds (AID 463107); type: functional
Sphingosine 1-phosphate receptor 4, sequence (O95977 whole entry): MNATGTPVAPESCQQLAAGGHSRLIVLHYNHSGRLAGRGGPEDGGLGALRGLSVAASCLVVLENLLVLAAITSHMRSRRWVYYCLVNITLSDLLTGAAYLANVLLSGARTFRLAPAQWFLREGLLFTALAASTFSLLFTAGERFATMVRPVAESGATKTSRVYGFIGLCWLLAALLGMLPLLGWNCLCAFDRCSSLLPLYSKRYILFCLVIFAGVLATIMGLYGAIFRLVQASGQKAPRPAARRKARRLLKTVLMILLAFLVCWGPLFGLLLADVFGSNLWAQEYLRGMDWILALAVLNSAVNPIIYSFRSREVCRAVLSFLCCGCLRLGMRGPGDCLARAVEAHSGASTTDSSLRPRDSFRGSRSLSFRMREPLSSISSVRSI

[10] = molecular target: Voltage-dependent T-type calcium channel subunit alpha-1H (Homo sapiens, UniProt O95180); assay: Cav3.2 T-type channel inhibitors, cell-based, synthetic library set 1, calcium flux (AID 493022); type: functional
[11] = inhibition of ADP-Glo detection reagents, dose response, artefact control for CDK5 inhibitor project, biochemical, luminescence, cherry-picked samples, set 2 (AID 504546); type: functional
[12] = Luminescence Cell-Based Dose Confirmation HTS to Identify Inhibitors of Platelet Dense Granule Release. [Related pubchem assays: 1663 (Primary HTS), 1678 (Summary of Project)]; type: functional
[13] = molecular target: G2/mitotic-specific cyclin-B1 (Homo sapiens, UniProt P14635); assay: G2/M cell cycle arrest in HeLa, late-stage follow-up, mechanism study for Wee1 degradation inhibitor project, FACS, panel member Cyclin B Degradation (AID 2088)
G2/mitotic-specific cyclin-B1, sequence (P14635 whole entry): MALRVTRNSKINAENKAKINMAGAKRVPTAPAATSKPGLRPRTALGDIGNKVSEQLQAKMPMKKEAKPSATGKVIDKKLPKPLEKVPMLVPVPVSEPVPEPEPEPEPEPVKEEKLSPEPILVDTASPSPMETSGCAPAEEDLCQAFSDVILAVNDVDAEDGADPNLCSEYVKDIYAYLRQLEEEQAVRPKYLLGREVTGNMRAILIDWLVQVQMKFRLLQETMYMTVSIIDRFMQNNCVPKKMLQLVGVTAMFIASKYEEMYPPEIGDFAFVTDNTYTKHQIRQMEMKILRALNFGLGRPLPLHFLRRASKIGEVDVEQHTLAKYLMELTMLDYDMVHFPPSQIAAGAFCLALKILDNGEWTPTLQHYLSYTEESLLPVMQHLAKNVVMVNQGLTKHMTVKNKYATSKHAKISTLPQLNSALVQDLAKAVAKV

Wee1-like protein kinase = Wee1-like protein kinase (Homo sapiens, UniProt P30291); assay: G2/M cell cycle arrest in HeLa, late-stage follow-up, mechanism study for Wee1 degradation inhibitor project, FACS, panel member Wee1 Degradation (AID 2088)
Wee1-like protein kinase, sequence (P30291 whole entry): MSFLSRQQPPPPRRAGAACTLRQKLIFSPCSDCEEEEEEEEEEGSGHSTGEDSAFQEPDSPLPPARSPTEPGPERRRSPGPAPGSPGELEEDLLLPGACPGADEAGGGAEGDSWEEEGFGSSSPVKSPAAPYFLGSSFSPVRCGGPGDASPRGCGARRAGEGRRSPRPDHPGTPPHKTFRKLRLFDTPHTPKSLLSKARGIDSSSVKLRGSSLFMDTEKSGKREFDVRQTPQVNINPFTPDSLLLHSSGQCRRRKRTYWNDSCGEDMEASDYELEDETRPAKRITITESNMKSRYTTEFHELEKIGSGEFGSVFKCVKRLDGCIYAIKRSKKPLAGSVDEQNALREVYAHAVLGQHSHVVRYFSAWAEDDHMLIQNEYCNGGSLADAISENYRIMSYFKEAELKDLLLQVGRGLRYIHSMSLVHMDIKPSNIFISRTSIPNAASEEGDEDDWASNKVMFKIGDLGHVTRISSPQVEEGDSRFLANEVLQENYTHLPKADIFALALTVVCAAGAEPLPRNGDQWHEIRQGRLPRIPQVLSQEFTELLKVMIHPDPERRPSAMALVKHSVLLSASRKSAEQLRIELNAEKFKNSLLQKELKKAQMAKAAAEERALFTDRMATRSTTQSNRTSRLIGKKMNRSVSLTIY

[14] = molecular target: Induced myeloid leukemia cell differentiation protein Mcl-1 (Homo sapiens, UniProt Q07820); assay: MCL1-BIM BH3 interaction inhibitors, dose response, biochemical, fluorescence polarization, BIM-BH3 peptide, 1536-well (AID 2217)
Induced myeloid leukemia cell differentiation protein Mcl-1, sequence (Q07820 whole entry): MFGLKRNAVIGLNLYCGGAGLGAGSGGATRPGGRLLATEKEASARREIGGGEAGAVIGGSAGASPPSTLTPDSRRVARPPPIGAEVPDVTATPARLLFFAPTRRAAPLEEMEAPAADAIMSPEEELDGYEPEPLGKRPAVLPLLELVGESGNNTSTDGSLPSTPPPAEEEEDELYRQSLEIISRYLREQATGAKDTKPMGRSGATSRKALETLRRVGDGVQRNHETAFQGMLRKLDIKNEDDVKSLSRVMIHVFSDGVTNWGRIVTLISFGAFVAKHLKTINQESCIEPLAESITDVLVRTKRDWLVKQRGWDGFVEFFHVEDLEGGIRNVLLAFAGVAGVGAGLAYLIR

Aspartyl aminopeptidase = Aspartyl aminopeptidase (Plasmodium falciparum 3D7, UniProt Q8I2J3)
Aspartyl aminopeptidase, sequence (Q8I2J3 whole entry): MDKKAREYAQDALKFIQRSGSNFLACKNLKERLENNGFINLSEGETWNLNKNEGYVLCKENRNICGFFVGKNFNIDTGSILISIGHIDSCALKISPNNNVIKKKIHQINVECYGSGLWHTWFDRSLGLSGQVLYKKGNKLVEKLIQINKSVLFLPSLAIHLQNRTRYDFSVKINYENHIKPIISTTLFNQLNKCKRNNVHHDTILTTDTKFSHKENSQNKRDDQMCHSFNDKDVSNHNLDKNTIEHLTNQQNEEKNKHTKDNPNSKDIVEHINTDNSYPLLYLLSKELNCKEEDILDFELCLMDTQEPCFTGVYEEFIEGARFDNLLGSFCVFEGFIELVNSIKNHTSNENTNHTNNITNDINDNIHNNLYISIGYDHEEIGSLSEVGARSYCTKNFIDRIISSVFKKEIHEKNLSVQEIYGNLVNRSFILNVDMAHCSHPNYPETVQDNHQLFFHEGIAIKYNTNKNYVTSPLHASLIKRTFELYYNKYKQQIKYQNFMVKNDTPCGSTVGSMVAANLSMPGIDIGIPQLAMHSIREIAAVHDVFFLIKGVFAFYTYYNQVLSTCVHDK

Bcl-2-like protein 1 = Bcl-2-like protein 1 (Homo sapiens, UniProt Q07817); assay: BCL-XL inhibitors, dose response, selectivity assay for MCL1 inhibitor project, biochemical, fluorescence polarization, 1536-well (AID 2218)
Bcl-2-like protein 1, sequence (Q07817 whole entry): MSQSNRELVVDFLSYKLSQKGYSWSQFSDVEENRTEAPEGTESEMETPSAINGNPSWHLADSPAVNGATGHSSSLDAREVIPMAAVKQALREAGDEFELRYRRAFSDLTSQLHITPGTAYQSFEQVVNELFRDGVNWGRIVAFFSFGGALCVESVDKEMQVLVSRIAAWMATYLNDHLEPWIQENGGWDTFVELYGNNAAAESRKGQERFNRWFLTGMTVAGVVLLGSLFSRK

Procathepsin L = Procathepsin L (Homo sapiens, UniProt P07711)
Procathepsin L, sequence (P07711 whole entry): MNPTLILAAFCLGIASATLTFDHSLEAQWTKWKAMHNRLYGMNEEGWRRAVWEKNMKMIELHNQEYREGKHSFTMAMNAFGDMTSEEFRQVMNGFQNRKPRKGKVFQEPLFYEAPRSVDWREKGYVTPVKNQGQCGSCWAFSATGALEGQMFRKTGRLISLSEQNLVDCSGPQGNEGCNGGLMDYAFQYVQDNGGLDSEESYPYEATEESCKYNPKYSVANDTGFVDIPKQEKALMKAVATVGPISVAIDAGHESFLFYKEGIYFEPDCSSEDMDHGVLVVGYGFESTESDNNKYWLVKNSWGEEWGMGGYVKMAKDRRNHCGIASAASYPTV

Compound: Cc1ccc(Nc2nc(-c3c(C)nc4ccccn34)cs2)cc1
IC50 (J774.A1): < 0.05 µM (inactive)

Compound: COc1ccc(CCN(C)C(=O)C2CCCN(Cc3ccccc3)C2)cc1OC (stereo not given)
AC50 (Trypanosoma cruzi): 1.4 µM (active)
AC50 [4]: 47.4 µM (active)

Compound: COc1cccc(CNC(=O)CSc2ccc(-c3ccco3)nn2)c1
IC50 [5]: > 100 µM (inactive)
IC50 [6]: > 100 µM (inactive)
IC50 [7]: > 100 µM (inactive)
IC50 [8]: 34.9 µM (active)

Compound: COc1ccc(C(=O)O/N=C(\N)c2ccccc2)cc1
AC50 [11]: 37.7 µM (active)
EC50 [12]: 0.921 µM (active)

Compound: CC(C)n1c(SCC(=O)Nc2nncs2)nnc1-c1ccco1
IC50 [14]: 18.1 µM (not active)
IC50 (Aspartyl aminopeptidase): 4.68 µM (active)
IC50 (Bcl-2-like protein 1): > 109 µM (not active)
IC50 (Procathepsin L): > 59.6 µM (not active)

Continued, in another order:

IC50 [1]: 4.07 µM (active)
Compound: Cc1csc2nc(O)c(C(=O)NCCC3=CCCCC3)c(=O)n12

IC50 [2]: 3.68 µM (active)
Compound: Cc1cccn2c(=O)c3cc(C(=O)NCCc4ccccc4)c(=N)n(Cc4ccco4)c3nc12
CC50 [3]: 15.5 µM (active)

EC50 [9]: > 50 µM (inactive)
Compound: Cc1ccc(OCCOc2ccc(Oc3ccccc3)cc2)c([N+](=O)[O-])n1

EC50 [10]: 10 µM (active)
Compound: CC(Oc1ccccc1)C(=O)Nc1nnc(-c2ccc3c(c2)OCO3)o1 (stereo not given)

EC50 [13]: > 49.7 µM (inactive)
EC50 (Wee1-like protein kinase): > 16.6 µM (active)
Compound: Cc1cc(O)nc(-n2nc(C)cc2NC(=O)/C=C/c2ccccc2)n1
